According to publication PMC7070382, “Cannabidiol Protects Dopaminergic Neurons in Mesencephalic Cultures against the Complex I Inhibitor Rotenone Via Modulation of Heme Oxygenase Activity and Bilirubin” (Antioxidants, 2020):

How the values were obtained:
heme oxygenase (HO) [1] = system: T1, heme oxygenase (HO); experiment: in vitro HO activity (hemin to bilirubin, spectrophotometric) in cell homogenate; type: biochemical
T1 construct: gene Hmox1; endogenous enzyme in J774A.1 cell homogenate; isoform not specified

heme oxygenase (HO) [2] = system: T1, heme oxygenase (HO); experiment: in vitro HO activity (hemin to bilirubin, spectrophotometric) in cell homogenate; Lineweaver-Burk kinetics; type: biochemical

## CCCCCc1cc(O)c2c(c1)OC(C)(C)[C@@H]1CCC(C)=C[C@@H]21 [THC, tetrahydrocannabinol]
Heme oxygenase (HO) [1]
  IC50: 56 µM

## C=C(C)[C@@H]1CCC(C)=C[C@H]1c1c(O)cc(CCCCC)cc1O [CBD, cannabidiol]
Heme oxygenase (HO) [2]
  IC50: 30 µM
